System: tube foot preparations
Assay: In vitro contraction of tube foot preparations
Parameters: species or system Asterias rubens
Conditions: words, ArBN 10^-9 to 10^-6 M
Experimental: ArBN (EPRRNYNRVFGPTY-NH2), ArBN5-14 (NYNRVFGPTY-NH2), and ArBNP65-81 (EPMPSSLALYIANLSP-NH2), were tested for effects on in vitro cardiac stomach and tube foot preparations from A. rubens. The preparations were dissected as described previously ([43], [59]–[61]), with the organs immersed in ice-cold artificial seawater during dissection. A description of the methods employed for investigation of in vitro effects of ArBN on cardiac stomach and tube foot preparations from A. rubens is included in SI Appendix, SI Methods. […]
Wax was removed from slides using xylene (3 × 10 min) and then slides were immersed in 100% ethanol (2 × 10 min). 0.3% hydrogen peroxide (VWR Chemicals, UK) in methanol was used to quench endogenous peroxidases for 30 min and then an ethanol series (90%, 70%, 50%), distilled water and PBST were used to rehydrate the tissue sections. 5% goat serum (Sigma-Aldrich, UK) made up in PBST was used for blocking for 2 h at room temperature. […]
All the dissected preparations were set up in an aerated organ bath filled with 20 ml artificial seawater maintained at approximately 11°C. Changes in the contractile state of preparations were detected by the transducer, which was linked via a bridge amplifier (FE221 Bridge Amp, ADInstruments Ltd, Oxford, UK) to data acquisition hardware (PowerLab 2/36, ADInstruments Ltd, Oxford, UK). […]

Substance | effect on tube foot preparations
NYNRVFGPTY-NH2 [ArBN5-14, C-terminally amidated 10-residue peptide corresponding to the C-terminal region of ArBN] | neither ArBN5-14 nor ArBNP65-81 had any observable effect
EPMPSSLALYIANLSP-NH2 [ArBNP65-81, C-terminally amidated 16-residue peptide predicted to be derived from residues 65 to 81 of ArBNP] | neither ArBN5-14 nor ArBNP65-81 had any observable effect
